Measured values as given in ChEMBL document CHEMBL1201862, “PubChem BioAssay data set” (2004).
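Results reflect a 48-hour exposure of cells in 96-well plates to compound at five concentrations. Abbreviation: GI50, concentration required for 50% inhibition of growth.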 Activity calls are given as the source filed them. No stated cut-off is given here; in the data, active = GI50 up to about 1.1 µM and inactive = higher.

Legend:
Test in all cases: DTP human tumour cell line panel, 48 h
[1] = tested on: PC-3
[2] = tested on: A549
[3] = tested on: SN12C
[4] = tested on: OVCAR-3
[5] = tested on: MOLT-4
[6] = tested on: SK-MEL-5
[7] = tested on: SF-268
[8] = tested on: HOP-62
[9] = tested on: NCI-H226
[10] = tested on: ACHN
[11] = tested on: MCF7
[12] = tested on: SK-OV-3
[13] = tested on: IGROV-1
[14] = tested on: HCT-116
[15] = tested on: COLO 205
[16] = tested on: SF-539
[17] = tested on: SF-295
[18] = tested on: M14
[19] = tested on: A498

Measured: GI50

Brc1cc2nn(-c3ccccc3)nc2c2nonc12
inactive: [1] > 100 µM | [2] > 100 µM | [3] > 100 µM | [4] > 100 µM | [5] > 100 µM | [6] > 100 µM | [7] > 100 µM | [8] > 100 µM | [9] > 100 µM | [10] > 100 µM | [11] > 100 µM | [12] > 100 µM | [13] > 100 µM | [14] > 100 µM | [15] > 100 µM | [16] > 100 µM | [17] > 100 µM | [18] > 100 µM

Clc1ccc(Nc2nnc(CNc3ccc(-c4nnc(Nc5ccc(Cl)cc5)s4)cc3)s2)cc1
inactive: [1] 15 µM | [2] 16.1 µM | [3] 47.8 µM | [5] 19 µM | [6] 24.9 µM | [7] 26.9 µM | [8] 30.4 µM | [9] 34.9 µM | [10] 20.2 µM | [19] 28.9 µM | [11] 17.9 µM | [12] 47.3 µM | [13] 41.2 µM | [14] 12.5 µM | [15] 20.2 µM | [17] 24.9 µM | [18] 22.8 µM

CN(C)C1(N(C)C)Oc2c(c(=O)n(C)c(=O)n2C)C(c2ccc(F)cc2)C1(F)F (centres undefined)
inactive: [1] > 100 µM | [2] > 100 µM | [4] > 100 µM | [6] > 100 µM | [7] > 100 µM | [8] > 100 µM | [9] > 100 µM | [10] > 100 µM | [19] > 100 µM | [11] > 100 µM | [12] > 100 µM | [14] > 100 µM | [15] > 100 µM | [17] > 100 µM | [18] > 100 µM

O=C(O)c1cc2ccccc2c(/N=N/c2ccc(S(=O)(=O)Nc3ccccn3)cc2)c1O
inactive: [1] > 100 µM | [2] > 100 µM | [3] > 100 µM | [4] > 100 µM | [5] > 100 µM | [6] > 100 µM | [7] > 100 µM | [8] > 100 µM | [9] > 100 µM | [10] > 100 µM | [11] > 100 µM | [12] > 100 µM | [13] > 100 µM | [14] > 100 µM | [15] > 100 µM | [16] > 100 µM | [17] > 100 µM | [18] > 100 µM

O=C(N/C(=C/c1ccc(Cl)cc1Cl)c1nc2ccccc2s1)c1ccccc1
inactive: [1] 18 µM | [2] 18.1 µM | [3] 9.68 µM | [4] 7.78 µM | [5] 14.3 µM | [6] 13.5 µM | [7] 14 µM | [8] 10.8 µM | [9] 13.6 µM | [10] 6.56 µM | [11] 16.2 µM | [12] 24.3 µM | [13] 11.1 µM | [14] 6.78 µM | [15] 18.3 µM | [16] 15.5 µM | [17] 12.7 µM | [18] 17.7 µM

Cc1ccc2c(c1)C(O)(c1ccccc1)CCS2 (centres undefined)
inactive: [1] 25.8 µM | [2] 32.8 µM | [3] 32.6 µM | [4] 21.3 µM | [5] 15.3 µM | [6] 29 µM | [7] 38.4 µM | [8] 33.7 µM | [9] 27.5 µM | [10] 27.2 µM | [11] 39.4 µM | [12] > 100 µM | [13] 20.6 µM | [14] 20.8 µM | [15] 30.3 µM | [16] 20.2 µM | [17] 30.1 µM | [18] 25.4 µM
